Tests used:
MOLM-13 AML cells = experiment: MTS cell viability assay; assay type: cell-based
Protocol: IC50 Determinations for Ovarian, Liver, Pancreatic, CML, AML Cancer Cell Lines (See e.g. FIGS. 4, 6A-6C, 21, 22A, 22B, 23, 24A-24C, 25A, 25B and 34): MTS assays were performed for cell viability. SKOV3 ovarian cancer, Huh-7 hepatocellular carcinoma, MIA-PaCa2 pancreatic cancer, KCL-22 CML, T315I mutant KCL-22 CML, MOLM-13 AML and MV4-11 AML cells were seeded in 96-well plates (5000 cells/well for solid tumors, 10000 cells/well for blood tumors), incubated overnight at 37° C. in 5% CO2, and exposed to racemic ETP69 or S enantiomer in a dose-dependent manner for 48 h. Dimethyl sulfoxide (DMSO) was used as the vehicle control. Viable cell numbers were determined by tetrazolium conversion to its formazan dye and absorbance was measured at 490 nm using an automated ELISA plate reader. Each experiment was performed in quadruplicate.

MV4-11 AML SQ xenografts = assay type: in vivo, mouse; details: MV4-11 xenograft, 5 mg/kg or 10 mg/kg orally once daily for 20 days
Protocol: Human MV4-11 acute myeloid leukemia (AML) cancer cells (5×10^6) that have FLT-ITD mutations were resuspended in serum-free RPMI1640 medium and Matrigel (ration of 1:1) and subcutaneously injected into the flank of 5-6 weeks old female NOD/SCID/IL-2rg(ko)(NSG). When palpable tumor sizes reached at approximately 50 mm^3, mice were divided into three groups (vehicle=9, 5 mg/kg dose group=8, 10 dose mg/kg group=8). Then, S enantiomer was orally administered at 5 mg/kg or 10 mg/kg with vehicle (10% DMSO+30% Solutol+60% saline), once daily for 20 days. Tumor volumes were calculated by the formula 1/2a×b^2, where a is the long diameter, and b is the short diameter. Tumor volumes correlate with tumor weights. The statistical significance of group differences was analyzed using a Student's t-test with the two-tailed distribution. P values less than 0.05 were considered statistically significant.

**Q.** How did the “increase in inhibitory capacity when compared to the (R) enantiomer” value (MOLM-13 AML cells) turn out when `CN1C(=O)[C@@]23C[C@](C)(C#N)[C@H](c4ccc5c(c4)OCO5)N2C(=O)[C@]1(C)SS3` [(S) enantiomer of ETP69, (3S,6S,7S,8aS)-6-(benzo[d][1,3]dioxol-5-yl)-2,3,7-trimethyl-1,4-dioxohexahydro-6H-3,8a-epidithiopyrrolo[1,2-a]pyrazine-7-carbonitrile] was run?
**A.** The value was roughly 4 fold.

**Q.** `CN1C(=O)[C@@]23C[C@](C)(C#N)[C@H](c4ccc5c(c4)OCO5)N2C(=O)[C@]1(C)SS3` (single isomer, unassigned) [ETP417] was tested. Which toxicity symptoms (MV4-11 AML SQ xenografts) did it give?
**A.** Its toxicity symptoms is “no observable toxicity symptoms”.

From patent US9856273B2, “ETP derivatives” (priority 2012, dated 2018)
